Source: ChEMBL document CHEMBL5331073, “Discovery of novel 7,7-dimethyl-6,7-dihydro-5H-pyrrolo[3,4-d]pyrimidines as ATR inhibitors based on structure-based drug design” (Eur J Med Chem, 2023)
≈ marks a conversion by molar mass, not a printed value.

Key:
[1] = target: Serine/threonine-protein kinase mTOR (Homo sapiens, UniProt P42345); experiment: Inhibition of mTOR (unknown origin) using peptide as substrate preincubated for 10 mins followed by substrate addition by microplate reader analysis
HT-29 [2] = experiment: Antiproliferative activity against ATM-proficient human HT-29 cells assessed as reduction in cell proliferation incubated for 3 days by MTT assay; format: functional, cell-based; conditions: HT-29, 72 h
[3] = Half life in Sprague-Dawley rat at 1 mg/kg, iv and measured upto 24 hrs by LC-MS analysis; format: ADME, organism-based; conditions: in vivo
[4] = MRT (0 to infinity) in Sprague-Dawley rat at 1 mg/kg, iv and measured upto 24 hrs by LC-MS analysis; format: ADME, organism-based; conditions: in vivo
[5] = MRT(t) in Sprague-Dawley rat at 1 mg/kg, iv and measured upto 24 hrs by LC-MS analysis; format: ADME, organism-based; conditions: in vivo
[6] = Volume of distribution at steady state in Sprague-Dawley rat at 1 mg/kg, iv and measured upto 24 hrs by LC-MS analysis; format: ADME, organism-based; conditions: in vivo, read-out: Vdss
[7] = Tmax in Sprague-Dawley rat at 5 mg/kg, po and measured upto 24 hrs by LC-MS analysis; format: ADME, organism-based; conditions: in vivo
[8] = Cmax in Sprague-Dawley rat at 5 mg/kg, po and measured upto 24 hrs by LC-MS analysis; format: ADME, organism-based; design: time < 24 hrs, dose 5 mg/kg, route po; conditions: in vivo
[9] = AUCt in Sprague-Dawley rat at 5 mg/kg, po and measured upto 24 hrs by LC-MS analysis; format: ADME, organism-based; design: time < 24 hrs, dose 5 mg/kg, route po; conditions: in vivo
[10] = MRT(t) in Sprague-Dawley rat at 5 mg/kg, po and measured upto 24 hrs by LC-MS analysis; format: ADME, organism-based; conditions: in vivo
[11] = MRT (0 to infinity) in Sprague-Dawley rat at 5 mg/kg, po and measured upto 24 hrs by LC-MS analysis; format: ADME, organism-based; conditions: in vivo
[12] = Oral bioavailability in Sprague-Dawley rat at 5 mg/kg and measured upto 24 hrs by LC-MS analysis; format: ADME, organism-based; conditions: in vivo
Cytochrome P450 1A2 = target: T1, Cytochrome P450 1A2 (Homo sapiens, UniProt P05177); experiment: Inhibition of CYP1A2 in human liver microsomes using […] as substrate preincubated for 5 mins followed by NADPH addition and measured after 120 mins by LC-MS/MS analysis; format: ADME, Microsome
T1 sequence (P05177 whole entry): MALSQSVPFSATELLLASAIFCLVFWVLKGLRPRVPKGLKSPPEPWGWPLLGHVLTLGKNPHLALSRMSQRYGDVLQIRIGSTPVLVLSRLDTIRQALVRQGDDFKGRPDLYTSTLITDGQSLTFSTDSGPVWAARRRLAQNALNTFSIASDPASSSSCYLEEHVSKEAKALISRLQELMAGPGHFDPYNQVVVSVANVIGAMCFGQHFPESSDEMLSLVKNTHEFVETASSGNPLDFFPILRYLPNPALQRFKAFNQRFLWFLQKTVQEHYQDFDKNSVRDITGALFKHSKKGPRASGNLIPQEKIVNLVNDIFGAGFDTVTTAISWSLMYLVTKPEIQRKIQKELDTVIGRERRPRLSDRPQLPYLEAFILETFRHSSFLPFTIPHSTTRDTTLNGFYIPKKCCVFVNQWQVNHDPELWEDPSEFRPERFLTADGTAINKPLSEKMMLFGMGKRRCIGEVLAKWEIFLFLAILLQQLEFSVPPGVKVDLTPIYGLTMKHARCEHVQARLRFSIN

Cytochrome P450 2C9 = Cytochrome P450 2C9 (Homo sapiens, UniProt P11712); experiment: Inhibition of CYP2C9 in human liver microsomes using […] as substrate preincubated for 5 mins followed by NADPH addition and measured after 120 mins by LC-MS/MS analysis; format: ADME, Microsome
Cytochrome P450 2C19 = Cytochrome P450 2C19 (Homo sapiens, UniProt P33261); experiment: Inhibition of CYP2C19 in human liver microsomes using […] as substrate preincubated for 5 mins followed by NADPH addition and measured after 120 mins by LC-MS/MS analysis; format: ADME, Microsome
Cytochrome P450 2D6 = Cytochrome P450 2D6 (Homo sapiens, UniProt P10635); experiment: Inhibition of CYP2D6 in human liver microsomes using […] as substrate preincubated for 5 mins followed by NADPH addition and measured after 120 mins by LC-MS/MS analysis; format: ADME, Microsome
[13] = Protein binding in monkey plasma at 1 uM incubated for 6 hrs by dialysis based LC-MS/MS analysis; format: ADME, cell-free, Macaca mulatta; conditions: rhesus monkey, read-out: PPB (converted)
[14] = Protein binding in rat plasma at 1 uM incubated for 6 hrs by dialysis based LC-MS/MS analysis; format: ADME, cell-free; conditions: read-out: PPB (converted)
[15] = Protein binding in mouse plasma at 1 uM incubated for 6 hrs by dialysis based LC-MS/MS analysis; format: ADME, cell-free; conditions: read-out: PPB (converted)
SW-620 = experiment: Antiproliferative activity against ATM-deficient human SW620 cells assessed as reduction in cell viability incubated for 3 days by MTT assay; format: functional, cell-based; conditions: SW-620, 72 h
OVCAR-3 = experiment: Antiproliferative activity against ATM-deficient human OVCAR-3 cells assessed as reduction in cell viability incubated for 3 days by MTT assay; format: functional, cell-based; conditions: OVCAR-3, 72 h
A549 = experiment: Antiproliferative activity against ATM-proficient human A549 cells assessed as reduction in cell viability incubated for 3 days by MTT assay; format: functional, cell-based; conditions: A549, 72 h
HT-29 [16] = experiment: Antiproliferative activity against ATM-proficient human HT-29 cells assessed as reduction in cell viability incubated for 3 days in presence of AZD-1390 by MTT assay; format: functional, cell-based; conditions: HT-29, 72 h
HCT-116 [17] = experiment: Antiproliferative activity against ATM-proficient human HCT-116 cells assessed as reduction in cell viability incubated for 3 days in presence of AZD-1390 by MTT assay; format: functional, cell-based; conditions: HCT-116, 72 h
HCT-116 [18] = experiment: Synergistic antiproliferative activity against ATM-proficient human HCT-116 cells assessed as reduction in cell viability incubated for 3 days in presence of cisplatin by MTT assay; format: functional, cell-based; conditions: HCT-116, 72 h
HCT-116 [19] = experiment: Synergistic antiproliferative activity against ATM-proficient human HCT-116 cells assessed as reduction in cell viability incubated for 3 days in presence of oxaliplatin by MTT assay; format: functional, cell-based; conditions: HCT-116, 72 h
MCF7 = experiment: Antiproliferative activity against human MCF7 cells assessed as reduction in cell viability incubated for 3 days by MTT assay; format: functional, cell-based; conditions: MCF7, 72 h
MDA-MB-231 = experiment: Synergistic antiproliferative activity against human MDA-MB-231 cells assessed as reduction in cell viability incubated for 3 days in presence of olaparib by MTT assay; format: functional, cell-based; conditions: MDA-MB-231, 72 h
[20] = Aqueous solubility of compound at pH 2.0 by HPLC-MS/MS analysis; format: physicochemical; conditions: aqueous medium
[21] = Apparent permeability across basolateral to apical side in human Caco-2 cells by bidirectional permeability assay; format: ADME, cell-based
[22] = Efflux ratio of apparent permeability across basolateral to apical side over apical to basolateral side in human Caco2 cells; format: ADME, cell-based; conditions: Caco-2
in vitro [23] = conditions: human, liver microsomes
in vitro [24] = conditions: rat, liver microsomes
in vitro [25] = conditions: human, liver microsomes; remark: listed apart in the source
in vitro [26] = conditions: human, liver microsomes; remark: listed apart in the source
in vitro [27] = conditions: rat, liver microsomes; remark: listed apart in the source

Chain of Cytochrome P450 2D6 (P10635 whole entry): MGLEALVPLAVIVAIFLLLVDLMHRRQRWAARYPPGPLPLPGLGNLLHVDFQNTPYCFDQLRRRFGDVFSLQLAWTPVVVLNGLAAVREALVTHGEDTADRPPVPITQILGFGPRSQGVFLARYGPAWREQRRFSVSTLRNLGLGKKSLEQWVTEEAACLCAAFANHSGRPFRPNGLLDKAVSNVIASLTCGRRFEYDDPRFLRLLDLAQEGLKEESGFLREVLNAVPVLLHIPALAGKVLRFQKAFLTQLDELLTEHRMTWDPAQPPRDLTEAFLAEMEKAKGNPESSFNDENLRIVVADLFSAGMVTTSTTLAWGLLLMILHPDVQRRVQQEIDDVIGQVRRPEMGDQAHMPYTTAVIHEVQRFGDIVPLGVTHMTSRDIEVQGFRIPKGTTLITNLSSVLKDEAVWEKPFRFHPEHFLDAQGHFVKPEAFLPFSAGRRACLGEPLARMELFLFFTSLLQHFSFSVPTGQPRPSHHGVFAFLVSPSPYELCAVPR
Chain of Cytochrome P450 2C9 (P11712 whole entry): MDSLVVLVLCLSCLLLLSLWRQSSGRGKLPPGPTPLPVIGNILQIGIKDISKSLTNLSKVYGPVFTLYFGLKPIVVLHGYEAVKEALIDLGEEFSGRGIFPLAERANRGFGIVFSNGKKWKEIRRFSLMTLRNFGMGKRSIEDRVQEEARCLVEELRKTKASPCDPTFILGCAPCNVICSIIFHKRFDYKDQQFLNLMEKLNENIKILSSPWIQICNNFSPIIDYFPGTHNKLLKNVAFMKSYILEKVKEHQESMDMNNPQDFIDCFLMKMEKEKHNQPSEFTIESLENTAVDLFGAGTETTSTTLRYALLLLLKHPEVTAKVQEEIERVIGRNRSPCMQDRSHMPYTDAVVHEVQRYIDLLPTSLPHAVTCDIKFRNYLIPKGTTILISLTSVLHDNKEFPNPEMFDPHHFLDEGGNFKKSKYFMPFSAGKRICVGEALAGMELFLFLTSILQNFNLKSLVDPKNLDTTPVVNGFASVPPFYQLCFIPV
Chain of Cytochrome P450 2C19 (P33261 whole entry): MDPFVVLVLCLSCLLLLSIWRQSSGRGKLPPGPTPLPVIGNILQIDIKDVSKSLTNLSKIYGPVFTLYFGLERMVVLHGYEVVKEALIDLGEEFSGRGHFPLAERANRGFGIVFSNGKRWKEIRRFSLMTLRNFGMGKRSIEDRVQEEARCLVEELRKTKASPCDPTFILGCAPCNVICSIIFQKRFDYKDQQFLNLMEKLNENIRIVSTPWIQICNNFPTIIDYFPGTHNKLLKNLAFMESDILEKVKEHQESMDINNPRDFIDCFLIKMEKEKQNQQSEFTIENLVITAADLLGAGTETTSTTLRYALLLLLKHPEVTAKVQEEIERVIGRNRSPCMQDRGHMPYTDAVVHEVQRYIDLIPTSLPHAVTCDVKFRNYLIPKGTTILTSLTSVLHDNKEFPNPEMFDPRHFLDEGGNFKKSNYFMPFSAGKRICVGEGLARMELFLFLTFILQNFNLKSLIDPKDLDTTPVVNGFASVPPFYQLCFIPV

## C[C@@H]1COCCN1c1nc(-c2cccc3[nH]ccc23)nc2c1CN(C(=O)c1ccc3c(c1)OCO3)C2(C)C
[1]
  IC50: 33 nM
HT-29 [2]
  IC50: 421 nM
[3]
  half-life: 1.59 h
[4]
  MRT inf: 2.19 h
[5]
  MRT last at 24 h: 1.99 h
[6]
  Vd: 0.785 L/kg
[7]
  Tmax: 1.67 h
[8]
  Cmax: 1290 ng/mL
[9]
  AUC(0-t) at 24 h: 5700 ng·h/mL
[10]
  MRT last at 24 h: 4.36 h
[11]
  MRT inf: 4.21 h
[12]
  bioavailability: 41.6%
Cytochrome P450 1A2
  IC50: > 10000 nM
Cytochrome P450 2C9
  IC50: 10000 nM
Cytochrome P450 2C19
  IC50: 1000 nM
Cytochrome P450 2D6
  IC50: > 10000 nM
[13]
  fraction unbound at 6 h, 1 µM: 0.011
[14]
  fraction unbound at 6 h, 1 µM: 0.001
[15]
  fraction unbound at 6 h, 1 µM: 0.005
SW-620
  IC50: 145 nM
OVCAR-3
  IC50: 127 nM
A549
  IC50: 741 nM
HT-29 [16]
  IC50: 45 nM
HCT-116 [17]
  IC50: 84 nM
HCT-116 [18]
  IC50: 93 nM
HCT-116 [19]
  IC50: 67 nM
MCF7
  IC50: 730 nM
MDA-MB-231
  IC50: 279 nM
[20]
  solubility: 47.6 µM (≈ 24.4 µg/mL)
[21]
  Papp B→A: 2.3 ×10⁻⁶ cm/s
[22]
  efflux ratio: 1.2
In vitro [23]
  half-life at 1 h, 1 µM: 0.435 h
In vitro [24]
  half-life at 1 h, 1 µM: 0.655 h
In vitro [25]
  microsomal CLint at 1 h, 1 µM: 53.2 µL/min/mg
In vitro [26]
  CLint scaled at 1 h, 1 µM: 50.3 mL/min/kg
In vitro [27]
  CLint scaled at 1 h, 1 µM: 63.6 mL/min/kg

## C[C@@H]1COCCN1c1nc(-c2cccc3[nH]ccc23)nc2c1CN(C(=O)c1cccc(S(C)(=O)=O)c1)C2(C)C
[1]
  IC50: 18 nM
HT-29 [2]
  IC50: 197 nM
[3]
  half-life: 1.32 h
[4]
  MRT inf: 1.45 h
[5]
  MRT last at 24 h: 1.36 h
[6]
  Vd: 1.24 L/kg
[7]
  Tmax: 2 h
[8]
  Cmax: 282 ng/mL
[9]
  AUC(0-t) at 24 h: 1620 ng·h/mL
[10]
  MRT last at 24 h: 3.6 h
[11]
  MRT inf: 4.26 h
[12]
  bioavailability: 30%
Cytochrome P450 1A2
  IC50: > 10000 nM
Cytochrome P450 2C9
  IC50: 10000 nM
Cytochrome P450 2C19
  IC50: 1000 nM
Cytochrome P450 2D6
  IC50: > 10000 nM
[13]
  fraction unbound at 6 h, 1 µM: 0.079
[14]
  fraction unbound at 6 h, 1 µM: 0.039
[15]
  fraction unbound at 6 h, 1 µM: 0.024
SW-620
  IC50: 95 nM
OVCAR-3
  IC50: 98 nM
A549
  IC50: 302 nM
HT-29 [16]
  IC50: 19 nM
HCT-116 [17]
  IC50: 1 nM
HCT-116 [18]
  IC50: 24 nM
HCT-116 [19]
  IC50: 13 nM
MCF7
  IC50: 873 nM
MDA-MB-231
  IC50: 435 nM
[20]
  solubility: 84.3 µM (≈ 46 µg/mL)
[21]
  Papp B→A: 16.7 ×10⁻⁶ cm/s
[22]
  efflux ratio: 2
In vitro [23]
  half-life at 1 h, 1 µM: 0.0567 h
In vitro [24]
  half-life at 1 h, 1 µM: 0.35 h
In vitro [25]
  microsomal CLint at 1 h, 1 µM: 407 µL/min/mg
In vitro [26]
  CLint scaled at 1 h, 1 µM: 385 mL/min/kg
In vitro [27]
  CLint scaled at 1 h, 1 µM: 119 mL/min/kg
